Test results taken from the supplement of paper PMC4932681.

Columns and labels:
ZR-75-1 [1] = experiment: drug sensitivity score (DSS) (DSS (dimensionless)); higher = more sensitive; extreme values may be limits of the assay; conditions: 72 h
Outline: (§1)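 Breast cancer cell lines and their resistant derivatives were seeded into 384-well plates containing library drugs at five concentrations across a 10 000-fold range, with resistant lines kept in medium with 1 μM of the selecting drug. After 72 h at 37 °C, CellTiter-Glo viability was read on a PHERAstar and normalised to vehicle-only and positive controls. Logistic dose–response fits in the Breeze pipeline gave drug sensitivity score, relative IC50 (curve midpoint) and top-dose inhibition.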

ZR-75-1 Tam1 [2] = experiment: as above; conditions: 4-OH-tamoxifen in medium 1 µM; 72 h
Outline: as §1

T-47D [3] = experiment: as above; conditions: 72 h
Outline: as §1

MCF-7 Tam1 [4] = experiment: as above; conditions: 4-OH-tamoxifen in medium 1 µM; 72 h
Outline: as §1

BT-474 Tam2 [5] = experiment: as above; conditions: 4-OH-tamoxifen in medium 1 µM; 72 h
Outline: as §1

BT-474 [6] = experiment: as above; conditions: 72 h
Outline: as §1

ZR-75-1 Tam2 [7] = experiment: as above; conditions: 4-OH-tamoxifen in medium 1 µM; 72 h
Outline: as §1

BT-474 Tam1 [8] = experiment: as above; conditions: 4-OH-tamoxifen in medium 1 µM; 72 h
Outline: as §1

MCF-7 [9] = experiment: as above; conditions: 72 h
Outline: as §1

T-47D Tam1 [10] = experiment: as above; conditions: 4-OH-tamoxifen in medium 1 µM; 72 h
Outline: as §1

T-47D Tam2 [11] = experiment: as above; conditions: 4-OH-tamoxifen in medium 1 µM; 72 h
Outline: as §1

ZR-75-1 [12] = experiment: relative IC50 (midpoint of fitted logistic curve, plateau may be below 50% inhibition; CellTiter-Glo viability); higher = less potent; conditions: 72 h
Outline: as §1

ZR-75-1 Tam1 [13] = experiment: as above; conditions: 4-OH-tamoxifen in medium 1 µM; 72 h
Outline: as §1

T-47D [14] = experiment: as above; conditions: 72 h
Outline: as §1

MCF-7 Tam1 [15] = experiment: as above; conditions: 4-OH-tamoxifen in medium 1 µM; 72 h
Outline: as §1

BT-474 Tam2 [16] = experiment: as above; conditions: 4-OH-tamoxifen in medium 1 µM; 72 h
Outline: as §1

BT-474 [17] = experiment: as above; conditions: 72 h
Outline: as §1

ZR-75-1 Tam2 [18] = experiment: as above; conditions: 4-OH-tamoxifen in medium 1 µM; 72 h
Outline: as §1

BT-474 Tam1 [19] = experiment: as above; conditions: 4-OH-tamoxifen in medium 1 µM; 72 h
Outline: as §1

MCF-7 [20] = experiment: as above; conditions: 72 h
Outline: as §1

T-47D Tam1 [21] = experiment: as above; conditions: 4-OH-tamoxifen in medium 1 µM; 72 h
Outline: as §1

T-47D Tam2 [22] = experiment: as above; conditions: 4-OH-tamoxifen in medium 1 µM; 72 h
Outline: as §1

Compound	drug sensitivity score (ZR-75-1 [1]; 4-OH-tamoxifen in medium 0 µM)	drug sensitivity score (ZR-75-1 [1]; 4-OH-tamoxifen in medium 1 µM)	drug sensitivity score (ZR-75-1 Tam1 [2])	drug sensitivity score (T-47D [3]; 4-OH-tamoxifen in medium 0 µM)	drug sensitivity score (T-47D [3]; 4-OH-tamoxifen in medium 1 µM)	drug sensitivity score (MCF-7 Tam1 [4])	drug sensitivity score (BT-474 Tam2 [5])	drug sensitivity score (BT-474 [6]; 4-OH-tamoxifen in medium 0 µM)	drug sensitivity score (BT-474 [6]; 4-OH-tamoxifen in medium 1 µM)	drug sensitivity score (ZR-75-1 Tam2 [7])	drug sensitivity score (BT-474 Tam1 [8])	drug sensitivity score (MCF-7 [9]; 4-OH-tamoxifen in medium 0 µM)	drug sensitivity score (MCF-7 [9]; 4-OH-tamoxifen in medium 1 µM)	drug sensitivity score (T-47D Tam1 [10])	drug sensitivity score (T-47D Tam2 [11])	relative IC50 (ZR-75-1 [12]; 4-OH-tamoxifen in medium 0 µM) [nM]	relative IC50 (ZR-75-1 [12]; 4-OH-tamoxifen in medium 1 µM) [nM]	relative IC50 (ZR-75-1 Tam1 [13]) [nM]	relative IC50 (T-47D [14]; 4-OH-tamoxifen in medium 0 µM) [nM]	relative IC50 (T-47D [14]; 4-OH-tamoxifen in medium 1 µM) [nM]	relative IC50 (MCF-7 Tam1 [15]) [nM]	relative IC50 (BT-474 Tam2 [16]) [nM]	relative IC50 (BT-474 [17]; 4-OH-tamoxifen in medium 0 µM) [nM]	relative IC50 (BT-474 [17]; 4-OH-tamoxifen in medium 1 µM) [nM]	relative IC50 (ZR-75-1 Tam2 [18]) [nM]	relative IC50 (BT-474 Tam1 [19]) [nM]	relative IC50 (MCF-7 [20]; 4-OH-tamoxifen in medium 0 µM) [nM]	relative IC50 (MCF-7 [20]; 4-OH-tamoxifen in medium 1 µM) [nM]	relative IC50 (T-47D Tam1 [21]) [nM]	relative IC50 (T-47D Tam2 [22]) [nM]
CNCc1ccc(-c2[nH]c3cc(F)cc4c3c2CCNC4=O)cc1	0	0	0	0	0	0	0	0	0	0	0	0	0	0	0	> 10000	> 10000	> 10000	> 10000	> 10000	> 10000	> 10000	> 10000	> 10000	> 10000	> 10000	> 10000	> 10000	> 10000	> 10000
CO[C@@H](C(=O)N1Cc2[nH]nc(NC(=O)c3ccc(N4CCN(C)CC4)cc3)c2C1)c1ccccc1	0	0	0	2.94	1.25	0	0	0	0	0	0	0	0	4.24	3.95	> 10000	> 10000	> 10000			> 10000	> 10000	> 10000	> 10000	> 10000	> 10000	> 10000	> 10000	1030	833
COc1ccc(-c2cc3c(C)nc(N)nc3n([C@H]3CC[C@H](OCCO)CC3)c2=O)cn1	19	17	16.3	18.6	15.4	13.2	19.5	16.5	24.3	24	22.7	20.2	16.4	18.1	14.9	102	102	208	184	332	194	175	297	76.6	52.5	121	77.5	173	188	305
COc1ncc(-c2ccc3nccc(-c4ccnnc4)c3c2)cc1NS(=O)(=O)c1ccc(F)cc1F	19.3	16.3	18.6	19.3	15.6	13.1	25	18.5	25.9	19.4	31	18.1	19.8	22.4	15.7	7.56	10.7	10.4	5.87	19.7	9.12	7.03	15.1	5.69	10.7	2.07	5.97	8.41	3.99	15.3
Cc1ccc(C(=O)N(CCCN)[C@@H](c2oc3cc(Cl)ccc3c(=O)c2Cc2ccccc2)C(C)C)cc1	0	0	0	0	0	0	0	0	0	0	0	0	0.514	0	0	> 100	> 100	> 100	> 100	> 100	> 100	> 100	> 100	> 100	> 100	> 100	> 100		> 100	> 100
Cc1cccc(-c2nn3c(c2-c2ccnc4ccc(C(N)=O)cc24)CCC3)n1	0	0	0	0	0	0	0	0	0	0	0	0	0.246	0	0	> 1000	> 1000	> 1000	> 1000	> 1000	> 1000	> 1000	> 1000	> 1000	> 1000	> 1000	> 1000		> 1000	> 1000
N#CC[C@H](C1CCCC1)n1cc(-c2ncnc3[nH]ccc23)cn1	0	0	0	0	0	0	0	0	0	0	0	0	0	0	0	> 10000	> 10000	> 10000	> 10000	> 10000	> 10000	> 10000	> 10000	> 10000	> 10000	> 10000	> 10000	> 10000	> 10000	> 10000
